In patent publication US9695193B2, “Inhibitors of Plasmodium falciparum equilibrative nucleoside transporter type I as anti-parasitic compounds” (The Trustees of Columbia University in the City of New York, priority 2013, dated 2017):
Read-outs that look alike come from different tables or passages of the source.

Key:
Assay type in all cases: cell-based
PfENT1 = biological target: T1, PfENT1 (Plasmodium falciparum, UniProt Q8IDM6); conditions: primary HTS, compounds at 10 μM, 125 μM 5-FUrd
T1 construct: expressed in transfected cells; host or cells: fui1Δ yeast (Saccharomyces cerevisiae), co-expressing GFP
Summary of the method: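 fui1Δ yeast expressing PfENT1 and GFP were grown with 125 μM 5-fluorouridine, so growth reflects blocked 5-FUrd uptake. Compounds were screened at 10 μM. Growth scored by OD620 turbidity and GFP fluorescence, and hits had to be positive on both.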

[1] = system: P. falciparum parasites (3D7 strain); assay: Plasmodium falciparum cytotoxicity assay (3D7 strain, SYBR-Green); conditions: 72-96 hours, Mean ± SD
Description: Plasmodium falciparum Cytotoxicity Assay
P. falciparum parasites (3D7 strain-chloroquine sensitive) are grown in in vitro culture in human erythrocytes. Each well is inoculated with a low density of parasites in standard parasite growth media with supplemented hypoxanthine (10 or 367 μM). Increasing concentrations of drugs are added and parasites are allowed to grow for 72-96 hours in 5% CO2/5% O2/90% N2 gas at 37° C. At the end of the experiment, parasites are lysed, SYBR-Green dye in lysis solution is added and the fluorescence intensity is measured for each well.

Dd2 parasite = assay: Plasmodium falciparum parasite viability assay (Dd2); conditions: Dd2, high purine media, Mean ± SD
[2] = system: P. falciparum 3D7 parasites; assay: [3H]adenosine uptake into trophozoite-stage P. falciparum 3D7 parasites; conditions: Plasmodium falciparum, uptake over 15 minutes, Mean ± SD, N ≧ 3
Text: FIGS. 5A-E are graphs and images reflecting the inhibitory effects of selected PfENT1 inhibiting compounds with P. falciparum. FIGS. 5A-C are graphs illustrating the inhibitory effects of selected PfENT1 inhibiting compounds with P. falciparum.

PfENT1-CO = biological target: T2, PfENT1-CO (Plasmodium falciparum, UniProt Q8IDM6); assay: [3H]adenosine uptake into PfENT1-CO expressing ade2Δ yeast; conditions: uptake over 15 minutes; Mean ± SD, N ≧ 3
T2 construct: expressed in transfected cells; host or cells: purine auxotrophic ade2Δ yeast (Saccharomyces cerevisiae)
Text: FIGS. 4A-C are graphs showing the validation of selected compounds identified as Plasmodium falciparum Equilibrative Nucleoside Transporter Type I (PfENT1) inhibitors in the high-throughput screen (HTS). […] The means values from single experiments are shown. In the key, CQ=chloroquine, and the Table 1 compounds are referenced as symbols indicating HTS rank #1-7, 13, and 19.
(§1) The means values from single experiments are shown. In the key, CQ=chloroquine, and the Table 1 compounds are referenced as symbols indicating HTS rank #1-7, 13, and 19. In this assay, inhibitors of PfENT1 […] yeast growth (FIGS. 4B-C).

PfENT1-HA-CO = biological target: T3, PfENT1-HA-CO (Plasmodium falciparum, UniProt Q8IDM6); assay: Concentration-dependent rescue of PfENT1-HA-CO-expressing fui1Δ yeast from 5-FUrd induced death
T3 construct: HA; expressed in transfected cells; host or cells: fui1Δ yeast (Saccharomyces cerevisiae)
Description: In the primary screen the compounds were tested at a concentration of 10 μM. Hits were identified by the growth of fui1Δ yeast expressing PfENT1 and Green Fluorescent Protein (GFP) in the presence of the cytotoxic nucleoside 5-fluorouridine (5-FUrd). 5-FUrd is transported by PfENT1. PfENT1 expressing fui1Δ yeast will only grow in the presence of 125 μM 5-FUrd if a PfENT1 inhibitor blocks the uptake of 5-FUrd into the yeast. Significant yeast growth in the HTS in 384 well plates was determined by two criteria: 1) turbidity as determined by the optical density at 620 nm (OD620) and 2) GFP fluorescence intensity. Positive responses were signal intensities greater than four standard deviations above the mean of the negative growth control wells. Hits had to be positive by both criteria. From the library screen, 171 chemical entities were identified as positive by both criteria (Table 2).
Of the 171 hits from the primary HTS, nine were chosen for more extensive validation using a series of secondary assays. These nine compounds included the top seven hits (HTS rank #1-7 as indicated in Tables 1 and 2), the first hit identified (compound HTS rank #19) and compound HTS rank #13, which was a unique chemical scaffold relative to the other 8 compounds. The secondary assays used to validate the nine selected hits include 1) repeat of the primary HTS using a series of compound concentrations to determine the concentration-response relationship for each compound, 2) testing in an alternative yeast-based assay in purine auxotrophic ade2Δ yeast expressing PfENT1 (described below, FIG. 1 and FIG. 4B), and 3) a Plasmodium falciparum cytotoxicity assay (described below, FIGS. 5A-B.). These assays allowed further confirmation the hits, determining the concentration-response relationships in the yeast-based assays and the concentration dependence of their ability to kill Plasmodium falciparum parasites during growth in in vitro culture. There was a roughly linear correlation between the compounds' IC50s measured in the two yeast-based assays. All nine compounds were tested in the P. falciparum cytotoxicity assay (FIGS. 5A-B).
as §1

[3] = 3D7, high purine media (hypoxanthine 367 μM), read-out: IC50 3D7 parasite viability-high purine media
[4] = 3D7, low purine media (hypoxanthine 10 μM), read-out: IC50 3D7 parasite viability-low purine media

T1 sequence (Q8IDM6 whole entry): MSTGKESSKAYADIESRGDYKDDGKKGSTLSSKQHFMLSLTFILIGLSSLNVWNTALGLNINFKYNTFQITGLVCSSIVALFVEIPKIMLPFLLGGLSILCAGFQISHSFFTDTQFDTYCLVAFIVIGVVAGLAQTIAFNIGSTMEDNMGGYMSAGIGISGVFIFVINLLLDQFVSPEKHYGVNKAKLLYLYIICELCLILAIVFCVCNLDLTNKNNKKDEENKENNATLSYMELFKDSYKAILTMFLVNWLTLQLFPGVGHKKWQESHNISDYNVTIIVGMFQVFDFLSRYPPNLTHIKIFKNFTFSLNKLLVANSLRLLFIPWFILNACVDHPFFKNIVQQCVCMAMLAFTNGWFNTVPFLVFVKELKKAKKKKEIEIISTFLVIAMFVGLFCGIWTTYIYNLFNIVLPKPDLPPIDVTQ
T2 sequence (Q8IDM6 whole entry): as above
T3 sequence (Q8IDM6 whole entry): as above

COc1ccccc1C(=O)Nc1cccc(-c2nc3ncccc3o2)c1 [compound 7, 2-methoxy-N-(3-[1,3]oxazolo [4,5-b]pyridin-2-ylphenyl)benzamide]
Avg Normalized % maximal activity (PfENT1): 55.05%
IC50 [1, 3]: 44.8 ± 3.8 µM
IC50 [1, 4]: 43.6 ± 4.4 µM
IC50 (Dd2 parasite): 31 ± 0.6 µM
IC50 [2]: 0.0248 ± 0.0174 µM
IC50 (PfENT1-CO): 0.0109 ± 0.0068 µM
IC50 (PfENT1-HA-CO): 6.4 ± 0.9 µM

O=C(Nc1ccc2nc(NC(=O)c3ccco3)sc2c1)c1ccco1 [compound 1]
Avg Normalized % maximal activity (PfENT1): 97.22%
IC50 [1, 3]: 37.7 ± 2 µM
IC50 [1, 4]: 31.1 ± 4.7 µM
IC50 (Dd2 parasite): 25.8 ± 1.3 µM
IC50 [2]: 0.0054 ± 0.0029 µM
IC50 (PfENT1-CO): 0.003 ± 0.0013 µM
IC50 (PfENT1-HA-CO): 0.8 µM

O=C(Nc1ccc(-c2nc3ncccc3o2)cc1)c1ccccc1Br [compound 2, 2-bromo-N-(4-[1,3]oxazolo [4,5-b]pyridin-2-ylphenyl)benzamide]
Avg Normalized % maximal activity (PfENT1): 91.94%
IC50 [1, 3]: 53.4 ± 11.1 µM
IC50 [1, 4]: 31.2 ± 7.7 µM
IC50 (Dd2 parasite): 52.4 ± 5.7 µM
IC50 [2]: 0.028 ± 0.0123 µM
IC50 (PfENT1-CO): 0.0101 ± 0.0084 µM
IC50 (PfENT1-HA-CO): 6 ± 1.7 µM

Cn1cc(C(=O)C(=O)Nc2ccc(C(=O)N3CCCC3)cc2)c2ccccc21 [compound 5, 2-(1-methyl-1H-indol-3-yl)-2-oxo-N-[4-(pyrrolidin-1-ylcarbonyl)phenyl]acetamide]
Avg Normalized % maximal activity (PfENT1): 64.07%
IC50 [1, 3]: 33.1 ± 0.5 µM
IC50 [1, 4]: 35.5 ± 0.7 µM
IC50 (Dd2 parasite): 28.9 ± 2.6 µM
IC50 [2]: 0.0386 ± 0.0201 µM
IC50 (PfENT1-CO): 0.0227 ± 0.0072 µM
IC50 (PfENT1-HA-CO): 6.5 ± 1.5 µM

COc1cc(COc2ccc3c(C)cc(=O)oc3c2)cc(OC)c1OC [HTS Rank #3, 4-methyl-7-[(3,4,5-trimethoxybenzyl)oxy]-2H-chromen-2-one]
Avg Normalized % maximal activity (PfENT1): 84.71%
IC50 [1, 3]: 41 ± 4.3 µM
IC50 [1, 4]: 19.2 ± 4.3 µM
IC50 (Dd2 parasite): 36.2 ± 6 µM
IC50 [2]: 0.0064 ± 0.003 µM
IC50 (PfENT1-CO): 0.0024 ± 0.0015 µM
IC50 (PfENT1-HA-CO): 2.3 ± 0.9 µM
